Assay results taken from ChEMBL document CHEMBL5131517 (ACS Med Chem Lett, 2022).
pEC50, pKi: −log10 of the molar value.

Assays:
[1] = target: T1, 5-hydroxytryptamine receptor 2C (Homo sapiens, UniProt P28335); assay: Agonist activity at human 5HT2C receptor stably expressed in Flp-In-T-REx-293 cells assessed as increase in Gq-mediated calcium flux by Fluo-4 direct dye based FLIPR Tetra assay; type: functional, cell-based; conditions: read-out: EC50
T1 sequence (P28335 whole entry): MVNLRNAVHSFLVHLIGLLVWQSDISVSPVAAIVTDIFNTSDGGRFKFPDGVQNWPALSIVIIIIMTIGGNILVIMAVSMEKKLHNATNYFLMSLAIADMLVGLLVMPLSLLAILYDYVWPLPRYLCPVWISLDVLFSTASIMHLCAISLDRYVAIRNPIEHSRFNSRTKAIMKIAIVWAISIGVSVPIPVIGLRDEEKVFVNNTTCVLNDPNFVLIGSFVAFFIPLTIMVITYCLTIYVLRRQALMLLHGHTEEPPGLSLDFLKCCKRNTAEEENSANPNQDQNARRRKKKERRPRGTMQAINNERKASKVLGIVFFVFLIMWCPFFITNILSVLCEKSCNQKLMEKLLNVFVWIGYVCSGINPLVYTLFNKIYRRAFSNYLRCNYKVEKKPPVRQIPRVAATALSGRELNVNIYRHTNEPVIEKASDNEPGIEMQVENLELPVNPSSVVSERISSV

[2] = target: T2, 5-hydroxytryptamine receptor 2C (Homo sapiens) (UniProt P28335); assay: Agonist activity at human 5HT2C receptor stably expressed in Flp-In-T-REx-293 cells assessed as maximal Gq-mediated calcium flux by Fluo-4 direct dye based FLIPR Tetra assay relative to control; type: functional, cell-based; conditions: filed as agonist
T2 sequence (whole entry): T1 sequence (P28335 whole entry)

[3] = target: 5-hydroxytryptamine receptor 5A (Homo sapiens, UniProt P47898); assay: Binding affinity to 5HT5A receptor (unknown origin) assessed as inhibition constant
Sequence of 5-hydroxytryptamine receptor 5A (P47898 whole entry): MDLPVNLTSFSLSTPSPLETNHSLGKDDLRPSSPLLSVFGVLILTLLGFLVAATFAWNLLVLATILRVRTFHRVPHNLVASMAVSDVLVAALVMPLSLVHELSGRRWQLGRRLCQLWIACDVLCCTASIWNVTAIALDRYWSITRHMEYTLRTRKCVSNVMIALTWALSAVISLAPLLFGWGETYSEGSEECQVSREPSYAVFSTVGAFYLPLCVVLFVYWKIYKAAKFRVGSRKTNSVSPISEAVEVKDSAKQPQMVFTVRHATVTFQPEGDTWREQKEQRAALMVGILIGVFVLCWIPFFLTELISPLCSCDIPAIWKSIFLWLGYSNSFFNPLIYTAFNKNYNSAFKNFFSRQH

[4] = target: 5-hydroxytryptamine receptor 6 (Homo sapiens, UniProt P50406); assay: Binding affinity to 5HT6 receptor (unknown origin) assessed as inhibition constant
Sequence of 5-hydroxytryptamine receptor 6 (P50406 whole entry): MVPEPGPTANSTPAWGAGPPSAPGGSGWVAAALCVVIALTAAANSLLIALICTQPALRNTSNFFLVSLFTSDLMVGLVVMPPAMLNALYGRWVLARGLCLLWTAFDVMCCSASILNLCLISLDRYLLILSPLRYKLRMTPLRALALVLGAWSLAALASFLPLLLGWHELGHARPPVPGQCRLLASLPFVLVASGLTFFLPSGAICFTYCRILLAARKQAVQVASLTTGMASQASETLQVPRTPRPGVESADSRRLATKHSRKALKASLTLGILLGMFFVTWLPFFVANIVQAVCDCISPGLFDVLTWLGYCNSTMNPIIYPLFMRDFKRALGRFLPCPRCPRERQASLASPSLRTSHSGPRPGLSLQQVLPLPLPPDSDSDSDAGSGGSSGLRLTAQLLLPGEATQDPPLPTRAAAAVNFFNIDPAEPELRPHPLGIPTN

[5] = target: 5-hydroxytryptamine receptor 7 (Homo sapiens, UniProt P34969); assay: Binding affinity to 5HT7 receptor (unknown origin) assessed as inhibition constant
Sequence of 5-hydroxytryptamine receptor 7 (P34969 whole entry): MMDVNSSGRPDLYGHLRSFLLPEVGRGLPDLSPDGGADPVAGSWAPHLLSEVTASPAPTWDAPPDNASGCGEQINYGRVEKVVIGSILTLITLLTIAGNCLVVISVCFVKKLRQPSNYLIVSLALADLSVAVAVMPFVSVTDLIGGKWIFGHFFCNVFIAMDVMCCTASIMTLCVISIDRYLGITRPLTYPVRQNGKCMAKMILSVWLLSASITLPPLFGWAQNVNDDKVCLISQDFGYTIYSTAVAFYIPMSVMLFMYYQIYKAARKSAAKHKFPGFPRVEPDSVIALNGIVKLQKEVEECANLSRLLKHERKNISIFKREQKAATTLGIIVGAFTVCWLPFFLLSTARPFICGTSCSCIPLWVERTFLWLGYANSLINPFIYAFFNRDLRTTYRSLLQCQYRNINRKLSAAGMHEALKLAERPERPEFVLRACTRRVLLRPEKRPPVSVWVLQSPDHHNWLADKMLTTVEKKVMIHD

[6] = target: Sodium-dependent serotonin transporter (Homo sapiens, UniProt P31645); assay: Inhibition of SERT receptor (unknown origin); conditions: concentration not given here
Sequence of Sodium-dependent serotonin transporter (P31645 whole entry, looked up): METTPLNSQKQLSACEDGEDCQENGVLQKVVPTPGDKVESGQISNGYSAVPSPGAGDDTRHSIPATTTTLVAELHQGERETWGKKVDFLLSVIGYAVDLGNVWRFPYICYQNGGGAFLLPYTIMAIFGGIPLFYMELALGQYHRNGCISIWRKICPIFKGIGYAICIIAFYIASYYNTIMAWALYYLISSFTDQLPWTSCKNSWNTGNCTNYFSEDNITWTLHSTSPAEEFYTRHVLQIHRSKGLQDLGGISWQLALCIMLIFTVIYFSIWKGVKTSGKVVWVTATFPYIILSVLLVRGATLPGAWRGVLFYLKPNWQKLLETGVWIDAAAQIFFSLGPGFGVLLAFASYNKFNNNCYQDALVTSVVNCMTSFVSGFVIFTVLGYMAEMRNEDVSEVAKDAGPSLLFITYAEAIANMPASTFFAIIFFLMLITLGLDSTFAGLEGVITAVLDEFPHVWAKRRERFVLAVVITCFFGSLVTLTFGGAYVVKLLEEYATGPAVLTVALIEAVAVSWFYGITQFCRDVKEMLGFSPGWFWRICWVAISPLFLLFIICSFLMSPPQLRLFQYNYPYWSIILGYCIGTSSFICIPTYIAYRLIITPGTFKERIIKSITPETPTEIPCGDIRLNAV

[7] = target: 5-hydroxytryptamine receptor 1D (Homo sapiens, UniProt P28221); assay: Binding affinity to 5HT1D receptor (unknown origin) assessed as inhibition constant
Sequence of 5-hydroxytryptamine receptor 1D (P28221 whole entry): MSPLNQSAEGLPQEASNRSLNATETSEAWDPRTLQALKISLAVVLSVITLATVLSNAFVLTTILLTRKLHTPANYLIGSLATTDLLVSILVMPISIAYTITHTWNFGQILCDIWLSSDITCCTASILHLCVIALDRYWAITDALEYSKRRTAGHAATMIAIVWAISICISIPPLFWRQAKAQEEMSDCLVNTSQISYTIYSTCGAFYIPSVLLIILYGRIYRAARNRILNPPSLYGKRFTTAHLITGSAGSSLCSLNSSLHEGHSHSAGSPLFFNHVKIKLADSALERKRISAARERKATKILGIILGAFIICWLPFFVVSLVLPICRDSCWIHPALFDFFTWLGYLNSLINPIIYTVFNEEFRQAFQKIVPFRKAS

[8] = target: Sigma intracellular receptor 2 (Homo sapiens, UniProt Q5BJF2); assay: Inhibition of sigma 2 receptor (unknown origin); conditions: concentration not given here
Sequence of Sigma intracellular receptor 2 (Q5BJF2 whole entry): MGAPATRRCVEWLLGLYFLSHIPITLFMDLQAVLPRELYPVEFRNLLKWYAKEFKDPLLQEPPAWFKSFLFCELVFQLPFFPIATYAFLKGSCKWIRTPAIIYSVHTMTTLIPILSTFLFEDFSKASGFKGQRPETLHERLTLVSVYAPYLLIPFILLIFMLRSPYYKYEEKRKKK

[9] = target: T3, Alpha-1D adrenergic receptor (Homo sapiens) (UniProt P25100); assay: Inhibition of alpha1D receptor (unknown origin); conditions: concentration not given here
T3 sequence (whole entry): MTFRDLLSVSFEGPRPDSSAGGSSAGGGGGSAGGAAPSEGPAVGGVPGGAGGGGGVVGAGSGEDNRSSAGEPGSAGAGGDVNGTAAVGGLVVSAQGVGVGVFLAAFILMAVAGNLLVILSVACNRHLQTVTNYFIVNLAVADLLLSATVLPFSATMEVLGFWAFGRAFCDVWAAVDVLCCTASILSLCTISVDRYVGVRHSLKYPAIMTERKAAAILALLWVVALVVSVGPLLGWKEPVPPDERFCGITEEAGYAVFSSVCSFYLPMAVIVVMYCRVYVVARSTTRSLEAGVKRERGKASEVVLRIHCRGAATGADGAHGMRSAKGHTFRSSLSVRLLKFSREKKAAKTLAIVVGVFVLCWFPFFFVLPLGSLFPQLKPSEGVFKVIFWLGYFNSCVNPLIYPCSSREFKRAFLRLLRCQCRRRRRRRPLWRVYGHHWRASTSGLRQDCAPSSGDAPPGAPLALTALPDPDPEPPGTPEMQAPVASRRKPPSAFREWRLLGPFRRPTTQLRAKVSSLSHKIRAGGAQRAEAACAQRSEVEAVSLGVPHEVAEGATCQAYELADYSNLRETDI

[10] = target: T4, Alpha-2B adrenergic receptor (Homo sapiens) (UniProt P18089); assay: Inhibition of alpha2B receptor (unknown origin); conditions: concentration not given here
T4 sequence (whole entry): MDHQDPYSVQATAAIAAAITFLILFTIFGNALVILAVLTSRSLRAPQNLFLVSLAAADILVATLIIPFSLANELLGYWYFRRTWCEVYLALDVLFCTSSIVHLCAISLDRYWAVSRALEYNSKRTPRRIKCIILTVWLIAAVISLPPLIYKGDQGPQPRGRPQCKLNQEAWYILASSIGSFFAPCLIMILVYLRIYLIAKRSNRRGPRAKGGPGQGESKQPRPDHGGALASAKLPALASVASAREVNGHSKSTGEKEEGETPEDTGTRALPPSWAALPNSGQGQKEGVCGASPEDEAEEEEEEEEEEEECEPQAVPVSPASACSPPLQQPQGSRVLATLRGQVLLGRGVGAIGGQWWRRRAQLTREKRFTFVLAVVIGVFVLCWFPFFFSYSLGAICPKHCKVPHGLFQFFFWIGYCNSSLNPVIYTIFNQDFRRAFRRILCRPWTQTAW

Homo sapiens = organism: Homo sapiens; assay: Inhibition of BZP receptor (unknown origin); conditions: concentration not given here
[11] = target: D(1A) dopamine receptor (Homo sapiens) (UniProt P21728); assay: Inhibition of D1 receptor (unknown origin); conditions: concentration not given here
Sequence of D(1A) dopamine receptor (Homo sapiens) (P21728 whole entry): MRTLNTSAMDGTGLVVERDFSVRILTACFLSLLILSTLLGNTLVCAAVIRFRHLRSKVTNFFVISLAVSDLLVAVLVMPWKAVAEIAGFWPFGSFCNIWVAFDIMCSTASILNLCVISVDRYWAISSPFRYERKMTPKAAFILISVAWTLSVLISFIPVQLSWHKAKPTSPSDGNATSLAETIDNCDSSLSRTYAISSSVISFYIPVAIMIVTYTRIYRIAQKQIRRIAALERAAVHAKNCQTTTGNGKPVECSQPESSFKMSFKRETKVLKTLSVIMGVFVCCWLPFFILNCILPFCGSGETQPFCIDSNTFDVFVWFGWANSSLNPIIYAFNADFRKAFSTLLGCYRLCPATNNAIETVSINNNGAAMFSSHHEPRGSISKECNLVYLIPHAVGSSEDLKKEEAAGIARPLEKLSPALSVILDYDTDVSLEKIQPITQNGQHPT

[12] = target: Histamine H2 receptor (Homo sapiens) (UniProt P25021); assay: Inhibition of H2 receptor (unknown origin); conditions: concentration not given here
Sequence of Histamine H2 receptor (Homo sapiens) (P25021 whole entry): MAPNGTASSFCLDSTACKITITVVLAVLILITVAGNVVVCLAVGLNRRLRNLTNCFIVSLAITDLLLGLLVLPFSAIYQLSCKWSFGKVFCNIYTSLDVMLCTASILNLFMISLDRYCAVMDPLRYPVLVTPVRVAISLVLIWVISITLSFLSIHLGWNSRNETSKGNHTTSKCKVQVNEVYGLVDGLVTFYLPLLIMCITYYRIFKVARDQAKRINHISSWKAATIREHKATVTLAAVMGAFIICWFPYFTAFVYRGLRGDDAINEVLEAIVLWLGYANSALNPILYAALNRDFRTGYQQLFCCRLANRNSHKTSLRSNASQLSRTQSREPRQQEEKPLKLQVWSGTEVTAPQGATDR

[13] = target: Histamine H3 receptor (Homo sapiens) (UniProt Q9Y5N1); assay: Inhibition of H3 receptor (unknown origin); conditions: concentration not given here
Sequence of Histamine H3 receptor (Homo sapiens) (Q9Y5N1 whole entry): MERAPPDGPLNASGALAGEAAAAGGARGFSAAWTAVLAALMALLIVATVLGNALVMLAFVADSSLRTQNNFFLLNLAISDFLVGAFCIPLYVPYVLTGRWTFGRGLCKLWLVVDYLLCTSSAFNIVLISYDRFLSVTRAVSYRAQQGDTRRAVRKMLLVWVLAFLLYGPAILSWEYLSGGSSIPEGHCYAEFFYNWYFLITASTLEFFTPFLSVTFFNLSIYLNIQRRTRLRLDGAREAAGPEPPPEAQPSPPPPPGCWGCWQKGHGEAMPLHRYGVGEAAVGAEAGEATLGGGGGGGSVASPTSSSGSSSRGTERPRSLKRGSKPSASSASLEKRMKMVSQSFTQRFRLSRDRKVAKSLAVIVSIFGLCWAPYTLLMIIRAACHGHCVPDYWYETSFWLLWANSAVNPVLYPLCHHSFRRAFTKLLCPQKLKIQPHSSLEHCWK

[14] = target: T5, Muscarinic acetylcholine receptor M4 (Homo sapiens) (UniProt P08173); assay: Inhibition of M4 receptor (unknown origin); conditions: concentration not given here
T5 sequence (whole entry): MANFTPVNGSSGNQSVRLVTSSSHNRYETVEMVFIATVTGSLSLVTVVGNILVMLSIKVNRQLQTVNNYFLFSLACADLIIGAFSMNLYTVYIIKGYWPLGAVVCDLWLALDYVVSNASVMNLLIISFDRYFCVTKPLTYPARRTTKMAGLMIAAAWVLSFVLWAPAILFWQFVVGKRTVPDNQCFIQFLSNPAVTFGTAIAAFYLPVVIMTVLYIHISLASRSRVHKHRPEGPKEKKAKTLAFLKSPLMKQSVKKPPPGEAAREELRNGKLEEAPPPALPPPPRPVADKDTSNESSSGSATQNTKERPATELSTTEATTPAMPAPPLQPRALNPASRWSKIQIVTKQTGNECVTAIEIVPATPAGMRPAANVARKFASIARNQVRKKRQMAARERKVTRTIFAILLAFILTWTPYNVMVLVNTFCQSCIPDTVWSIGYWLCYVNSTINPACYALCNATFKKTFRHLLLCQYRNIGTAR

[15] = target: Translocator protein (Homo sapiens) (UniProt P30536); assay: Inhibition of peripheral benzodiazepine receptor (unknown origin); conditions: concentration not given here
Sequence of Translocator protein (Homo sapiens) (P30536 whole entry): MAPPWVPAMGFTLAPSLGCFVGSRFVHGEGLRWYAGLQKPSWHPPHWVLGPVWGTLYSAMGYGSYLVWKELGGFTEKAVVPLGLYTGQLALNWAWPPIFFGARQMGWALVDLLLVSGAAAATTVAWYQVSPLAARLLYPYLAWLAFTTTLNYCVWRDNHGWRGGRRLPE

[16] = target: GABA-A receptor; anion channel (Homo sapiens) (UniProt P14867+P47870+P18507+P28472+P48169+Q99928+Q9UN88+P34903+O00591+O14764+Q8N1C3+P18505+P78334+P47869+P31644+Q16445); assay: Inhibition of GABA-A receptor (unknown origin); type: protein-complex assay; conditions: concentration not given here

pEC50 [1] | Emax [2] [%] | pKi [3] | pKi [4] | pKi [5] | inhibition [6] [%] | pKi [7] | inhibition [8] [%] | inhibition [9] [%] | inhibition [10] [%] | inhibition (Homo sapiens) [%] | inhibition [11] [%] | inhibition [12] [%] | inhibition [13] [%] | inhibition [14] [%] | inhibition [15] [%] | inhibition [16] [%] | SMILES
9.30 | 97.5 | 7.16 | 7.54 | 8.60 | < 50 | 7.41 | < 50 | < 50 | < 50 | < 50 | < 50 | < 50 | < 50 | < 50 | < 50 | < 50 | COc1cc(OC)c(C2NCCc3c2[nH]c2ccc(Cl)cc32)cc1OC (stereo unspecified)
8.05 | 97.2 | 6.75 | 7.32 | 8.10 | < 50 | 7.50 | < 50 | < 50 | < 50 | < 50 | < 50 | < 50 | < 50 | < 50 | < 50 | < 50 | COc1ccc(C2NCCc3c2[nH]c2ccc(Cl)cc32)c(O)c1 (stereo unspecified)
8.99 | 105 | 6.64 | 7.16 | 7.60 | – | 6.96 | < 50 | < 50 | < 50 | < 50 | < 50 | < 50 | < 50 | < 50 | < 50 | < 50 | COc1ccc(C2NCCc3c2[nH]c2ccc(F)cc32)c(O)c1 (stereo unspecified)
7.70 | 111 | 5.55 | 6.28 | 6.60 | < 50 | 6.18 | – | < 50 | < 50 | < 50 | < 50 | < 50 | < 50 | < 50 | < 50 | < 50 | COc1cc(OC)c(C2NCCc3c2[nH]c2ccc(F)cc32)cc1OC (stereo unspecified)
